Test results published in US20230373938A1, “BENZOTHIAZOLE MEROTERPENOID COMPOUND AND DERIVATIVE THEREOF, AND PREPARATION METHOD THEREFOR AND USE THEREOF” (THIRD INSTITUTE OF OCEANOGRAPHY, MINISTRY OF NATURAL …, priority 2020, published 2023).
pKd: −log10 of the molar value.

What was measured:
RXRalpha = target: T1, RXRalpha (Homo sapiens, UniProt P19793); experiment: RXRalpha dual-luciferase reporter gene assay (transcriptional activity); assay type: cell-based; settings: 293T cells, in combination with agonist 9-cis-RA; dosed 12.5, 25, 50 μM for 12 h
T1 construct: expressed in transfected cells; host or cells: Human embryonic kidney cells (293T)
T1 sequence (P19793 1-462): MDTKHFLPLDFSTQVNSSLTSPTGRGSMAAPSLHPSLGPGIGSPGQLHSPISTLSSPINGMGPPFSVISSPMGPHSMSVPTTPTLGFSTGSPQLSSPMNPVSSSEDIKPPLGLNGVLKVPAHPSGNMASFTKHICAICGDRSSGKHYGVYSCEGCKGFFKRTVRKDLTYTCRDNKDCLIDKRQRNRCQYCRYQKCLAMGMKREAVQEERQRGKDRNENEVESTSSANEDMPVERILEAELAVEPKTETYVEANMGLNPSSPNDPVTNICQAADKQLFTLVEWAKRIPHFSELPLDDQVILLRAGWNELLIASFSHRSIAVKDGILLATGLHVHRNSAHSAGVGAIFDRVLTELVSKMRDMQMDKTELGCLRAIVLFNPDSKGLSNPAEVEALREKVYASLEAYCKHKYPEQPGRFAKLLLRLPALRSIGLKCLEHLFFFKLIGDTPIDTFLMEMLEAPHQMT
Source text: In this embodiment, a dual-luciferase reporter (DLR) assay system consisting of firefly luciferase (FL) reporter gene and Rellina luciferase (RL) reporter gene is used. The RL reporter gene is used as an internal control to normalize measurement results of the FL reporter gene. In cells lacking endogenous RXRalpha and necessary components for downstream signal transduction, a receptor RXRalpha and reporter gene containing RXRalpha response elements are introduced by transfection, so as to simply simulate a transcriptional activation process of a receptor in vivo.
In this embodiment, the following three groups are set: • Negative control group: culture solution of an equal amount, 0.1% DMSO, containing cells, without the compounds as represented by formulas I to III; • Positive control group: culture solution of an equal amount, added with an RXRalpha agonist 9-cis-retinoic acid with or without an antagonist UVI3003 respectively; • Treatment group: cell culture solutions added with an RXRalpha agonist 9-cis-retinoic acid and the compounds as represented by formulas I to III respectively.
Specific steps include: • (1) Cell culture and preparation of test solution • Human embryonic kidney cells (293T) are cultured in a DMEM medium containing 10% fetal bovine serum (FBS) in an incubator containing 5% CO2 at 37° C., and passaged regularly based on growth law of the cells. […]

RXRalpha-LBD protein = target: T2, RXRalpha-LBD protein (Homo sapiens, UniProt P19793); experiment: Biacore (surface plasmon resonance) binding to RXRalpha-LBD protein; settings: Biacore T200, CM5 chip
T2 sequence (P19793 227-458 limits assumed): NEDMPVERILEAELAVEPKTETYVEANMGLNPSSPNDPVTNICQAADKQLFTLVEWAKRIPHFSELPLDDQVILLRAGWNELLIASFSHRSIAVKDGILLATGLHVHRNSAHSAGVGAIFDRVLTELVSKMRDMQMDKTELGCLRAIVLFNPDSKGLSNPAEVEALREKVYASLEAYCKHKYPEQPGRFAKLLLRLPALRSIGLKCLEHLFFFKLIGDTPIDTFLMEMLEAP
Procedure: A purified nuclear receptor RXRalpha-LBD protein is coupled with a CM5 chip of Biacore. Then the compounds to be tested are diluted with PBS to prepare solutions at different concentrations before sampling. When samples to be tested flow over the surface of the chip, the binding between biomolecules results in an increase in surface mass of a biosensor, so that refractive index changes. By monitoring angular variation of SPR, kinetic binding and dissociation constants, affinity and specificity of analytes can be automatically obtained. A BiacoreT200 detector can detect interaction between a target protein and the samples to be tested in real time, and binding strength is expressed in response unites (RU) (a change in concentration of binding substances on the chip surface by 1 pg/mm2 is defined as 1 RU). The compounds I to III are screened by Biacore technology, and a binding constant KD of small molecular compounds with RXRalpha-LBD is calculated based on a concentration gradient experiment.

`C=C1CCC2C(C)(C)CCC[C@]2(C)[C@H]1Cc1cc(O)c(C)c2sc(C(=O)NCC(=O)O)nc12` (stereo partly drawn) [compound I, meroterpenthiazole A] was tested, and the “inhibition of the transcription of RXRalpha by 9-cis-RA” value (RXRalpha) was “inhibit the transcription of RXRalpha by 9-cis-RA in a concentration-dependent manner”, the “binding mode to RXRalpha protein” value (RXRalpha-LBD protein) was “fast binding and fast dissociation mode” and the pKd (RXRalpha-LBD protein; concentration gradient, read-out: binding constant KD with RXRalpha-LBD) was 4.91.
